According to ChEMBL document CHEMBL3991601, “The target landscape of clinical kinase drugs” (Science, 2017):
Activity calls are given as the source filed them. Rule as the data show it, for most assays here: actives have a measured Kd and inactives only a lower limit.
Also: in the data inactive means no Kd found up to 30 µM.

The molecules below were run against T1, Serine/threonine-protein kinase LATS1 (Homo sapiens, UniProt O95835).
T1 sequence (O95835 whole entry): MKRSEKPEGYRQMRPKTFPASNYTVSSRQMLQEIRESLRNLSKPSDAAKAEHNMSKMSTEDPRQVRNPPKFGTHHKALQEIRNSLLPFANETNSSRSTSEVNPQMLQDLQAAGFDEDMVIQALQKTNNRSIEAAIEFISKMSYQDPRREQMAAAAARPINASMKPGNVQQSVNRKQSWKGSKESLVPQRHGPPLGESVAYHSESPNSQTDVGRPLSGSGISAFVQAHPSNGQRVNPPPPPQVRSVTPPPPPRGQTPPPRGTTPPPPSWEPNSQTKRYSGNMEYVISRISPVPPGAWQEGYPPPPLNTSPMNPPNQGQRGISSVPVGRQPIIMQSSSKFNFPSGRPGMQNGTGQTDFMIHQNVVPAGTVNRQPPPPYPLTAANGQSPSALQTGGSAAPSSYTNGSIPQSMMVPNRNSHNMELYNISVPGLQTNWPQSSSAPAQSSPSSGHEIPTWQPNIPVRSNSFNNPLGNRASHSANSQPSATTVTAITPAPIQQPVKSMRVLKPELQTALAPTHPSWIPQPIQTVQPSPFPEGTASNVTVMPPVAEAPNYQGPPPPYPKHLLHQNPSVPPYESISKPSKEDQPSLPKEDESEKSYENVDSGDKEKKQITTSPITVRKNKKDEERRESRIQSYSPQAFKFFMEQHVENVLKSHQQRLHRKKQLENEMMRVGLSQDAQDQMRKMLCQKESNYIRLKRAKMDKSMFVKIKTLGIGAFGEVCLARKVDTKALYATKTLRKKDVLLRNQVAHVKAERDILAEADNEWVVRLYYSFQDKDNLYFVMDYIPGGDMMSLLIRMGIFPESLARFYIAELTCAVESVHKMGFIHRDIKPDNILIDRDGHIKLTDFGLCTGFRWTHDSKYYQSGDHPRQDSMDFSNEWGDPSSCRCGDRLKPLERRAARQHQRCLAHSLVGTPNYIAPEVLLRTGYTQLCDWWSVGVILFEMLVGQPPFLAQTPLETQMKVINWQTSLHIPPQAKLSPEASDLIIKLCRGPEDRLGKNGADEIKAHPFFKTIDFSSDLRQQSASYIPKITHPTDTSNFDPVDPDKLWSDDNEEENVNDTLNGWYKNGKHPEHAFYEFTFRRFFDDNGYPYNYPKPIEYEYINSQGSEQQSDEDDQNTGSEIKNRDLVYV
In the case of `Cc1cc(Nc2cc(N3CCN(C)CC3)nc(/C=C/c3ccccc3)n2)n[nH]1` [ENMD-2076], the Kd is reported as > 30 µM (inactive).
For `O=C1NC(=O)/C(=C/c2ccc3nccc(-c4ccncc4)c3c2)S1` [GSK-1059615], the Kd was > 30 µM (inactive).
For `COC(=O)[C@@]1(O)C[C@H]2O[C@]1(C)n1c3ccccc3c3c4c(c5c6ccccc6n2c5c31)C(=O)NC4` [K-252A], the Kd was 0.067 µM (active).
For `COc1cc2nccc(Oc3ccc(NC(=O)NC4CC4)c(Cl)c3)c2cc1C(N)=O` [LENVATINIB], the Kd was > 30 µM (inactive).
In the case of `C1=C/COCc2cc(ccc2OCCN2CCCC2)Nc2nccc(n2)-c2cccc(c2)COC/1` [PACRITINIB], the Kd is reported as > 30 µM (inactive).

The molecules below were run against T2, Mitogen-activated protein kinase kinase kinase kinase 2 (Homo sapiens, UniProt Q12851).
T2 sequence (Q12851 whole entry): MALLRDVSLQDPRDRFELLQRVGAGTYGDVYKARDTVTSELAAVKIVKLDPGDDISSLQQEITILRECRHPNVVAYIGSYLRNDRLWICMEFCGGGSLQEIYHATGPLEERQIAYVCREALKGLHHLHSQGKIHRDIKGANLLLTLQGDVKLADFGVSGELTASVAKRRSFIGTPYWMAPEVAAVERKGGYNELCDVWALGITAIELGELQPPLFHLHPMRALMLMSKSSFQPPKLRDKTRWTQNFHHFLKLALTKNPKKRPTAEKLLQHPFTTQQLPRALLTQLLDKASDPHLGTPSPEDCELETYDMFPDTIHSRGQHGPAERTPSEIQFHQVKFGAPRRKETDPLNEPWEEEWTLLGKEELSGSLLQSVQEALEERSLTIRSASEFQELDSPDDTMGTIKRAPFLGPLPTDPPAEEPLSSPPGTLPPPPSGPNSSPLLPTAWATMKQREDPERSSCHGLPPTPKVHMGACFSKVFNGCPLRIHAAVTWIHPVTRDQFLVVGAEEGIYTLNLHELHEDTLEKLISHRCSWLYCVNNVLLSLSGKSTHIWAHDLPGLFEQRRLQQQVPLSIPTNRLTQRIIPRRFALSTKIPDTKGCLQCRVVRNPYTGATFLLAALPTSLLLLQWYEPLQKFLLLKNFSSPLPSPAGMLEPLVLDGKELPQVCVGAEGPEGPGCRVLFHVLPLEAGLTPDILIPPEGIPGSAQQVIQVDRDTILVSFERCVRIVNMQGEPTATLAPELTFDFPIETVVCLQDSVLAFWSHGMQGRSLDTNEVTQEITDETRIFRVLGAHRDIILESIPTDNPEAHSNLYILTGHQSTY
In the case of `O=C1NC(=O)/C(=C/c2ccc3nccc(-c4ccncc4)c3c2)S1` [GSK-1059615], the Kd is reported as > 30 µM (inactive).
`COC(=O)[C@@]1(O)C[C@H]2O[C@]1(C)n1c3ccccc3c3c4c(c5c6ccccc6n2c5c31)C(=O)NC4` [K-252A] was tested, and the Kd was 0.131 µM (active).
With `COc1cc2nccc(Oc3ccc(NC(=O)NC4CC4)c(Cl)c3)c2cc1C(N)=O` [LENVATINIB] the Kd was 0.578 µM (active).
With `C1=C/COCc2cc(ccc2OCCN2CCCC2)Nc2nccc(n2)-c2cccc(c2)COC/1` [PACRITINIB] the Kd was 3.72 µM (active).

These molecules were tested against Protein kinase C delta type (Homo sapiens, UniProt Q05655).
Sequence of Protein kinase C delta type (Q05655 whole entry): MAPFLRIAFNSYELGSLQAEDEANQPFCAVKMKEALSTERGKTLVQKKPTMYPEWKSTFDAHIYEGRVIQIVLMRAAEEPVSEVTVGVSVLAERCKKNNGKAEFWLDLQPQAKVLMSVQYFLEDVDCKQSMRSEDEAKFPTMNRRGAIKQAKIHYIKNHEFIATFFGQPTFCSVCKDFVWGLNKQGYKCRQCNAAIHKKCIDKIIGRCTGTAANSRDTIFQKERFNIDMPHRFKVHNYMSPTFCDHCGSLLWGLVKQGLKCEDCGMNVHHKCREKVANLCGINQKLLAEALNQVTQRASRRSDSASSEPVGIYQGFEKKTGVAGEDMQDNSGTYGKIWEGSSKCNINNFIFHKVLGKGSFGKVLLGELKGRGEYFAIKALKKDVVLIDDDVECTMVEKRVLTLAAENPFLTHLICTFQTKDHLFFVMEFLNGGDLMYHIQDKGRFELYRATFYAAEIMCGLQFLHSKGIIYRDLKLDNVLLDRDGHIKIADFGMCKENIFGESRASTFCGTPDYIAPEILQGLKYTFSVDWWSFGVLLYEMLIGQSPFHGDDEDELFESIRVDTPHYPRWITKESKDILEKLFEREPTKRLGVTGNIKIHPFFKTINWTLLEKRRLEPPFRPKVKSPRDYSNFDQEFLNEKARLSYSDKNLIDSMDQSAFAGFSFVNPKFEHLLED
In the case of `O=C1NC(=O)/C(=C/c2ccc3nccc(-c4ccncc4)c3c2)S1` [GSK-1059615], the Kd is reported as > 30 µM (inactive).
In the case of `COc1cc2nccc(Oc3ccc(NC(=O)NC4CC4)c(Cl)c3)c2cc1C(N)=O` [LENVATINIB], the Kd is reported as > 30 µM (inactive).
`C1=C/COCc2cc(ccc2OCCN2CCCC2)Nc2nccc(n2)-c2cccc(c2)COC/1` [PACRITINIB] was tested, and the Kd was > 30 µM (inactive).

Each molecule was assayed against Mitogen-activated protein kinase 7 (Homo sapiens, UniProt Q13164).
Sequence of Mitogen-activated protein kinase 7 (Q13164 whole entry): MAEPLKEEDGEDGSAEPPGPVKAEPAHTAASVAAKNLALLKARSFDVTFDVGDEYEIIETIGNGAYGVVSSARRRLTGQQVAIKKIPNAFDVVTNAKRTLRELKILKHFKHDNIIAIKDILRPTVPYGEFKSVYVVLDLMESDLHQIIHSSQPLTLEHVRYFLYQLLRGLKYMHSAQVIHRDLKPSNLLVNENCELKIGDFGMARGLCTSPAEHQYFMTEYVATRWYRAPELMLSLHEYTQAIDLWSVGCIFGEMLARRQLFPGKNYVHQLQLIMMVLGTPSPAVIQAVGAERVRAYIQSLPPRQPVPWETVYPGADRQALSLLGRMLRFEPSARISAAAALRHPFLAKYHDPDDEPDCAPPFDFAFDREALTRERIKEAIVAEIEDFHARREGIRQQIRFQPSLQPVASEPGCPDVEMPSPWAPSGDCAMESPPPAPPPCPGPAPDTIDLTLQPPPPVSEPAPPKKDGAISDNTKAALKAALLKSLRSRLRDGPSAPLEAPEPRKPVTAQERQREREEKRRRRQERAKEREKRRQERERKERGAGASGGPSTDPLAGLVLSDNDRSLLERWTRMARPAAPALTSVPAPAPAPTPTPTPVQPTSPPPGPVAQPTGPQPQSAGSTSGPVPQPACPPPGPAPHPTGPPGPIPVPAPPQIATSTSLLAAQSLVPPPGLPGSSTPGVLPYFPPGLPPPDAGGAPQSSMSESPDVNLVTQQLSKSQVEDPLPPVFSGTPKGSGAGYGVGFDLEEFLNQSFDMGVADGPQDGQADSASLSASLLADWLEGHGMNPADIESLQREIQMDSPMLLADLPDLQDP
For `Cc1cc(Nc2cc(N3CCN(C)CC3)nc(/C=C/c3ccccc3)n2)n[nH]1` [ENMD-2076], the Kd was > 30 µM (inactive).
With `O=C1NC(=O)/C(=C/c2ccc3nccc(-c4ccncc4)c3c2)S1` [GSK-1059615] the Kd was > 30 µM (inactive).
In the case of `COC(=O)[C@@]1(O)C[C@H]2O[C@]1(C)n1c3ccccc3c3c4c(c5c6ccccc6n2c5c31)C(=O)NC4` [K-252A], the Kd is reported as > 30 µM (inactive).
For `COc1cc2nccc(Oc3ccc(NC(=O)NC4CC4)c(Cl)c3)c2cc1C(N)=O` [LENVATINIB], the Kd was > 30 µM (inactive).

Each molecule was assayed against Tyrosine-protein kinase HCK (Homo sapiens, UniProt P08631).
Sequence of Tyrosine-protein kinase HCK (P08631 whole entry): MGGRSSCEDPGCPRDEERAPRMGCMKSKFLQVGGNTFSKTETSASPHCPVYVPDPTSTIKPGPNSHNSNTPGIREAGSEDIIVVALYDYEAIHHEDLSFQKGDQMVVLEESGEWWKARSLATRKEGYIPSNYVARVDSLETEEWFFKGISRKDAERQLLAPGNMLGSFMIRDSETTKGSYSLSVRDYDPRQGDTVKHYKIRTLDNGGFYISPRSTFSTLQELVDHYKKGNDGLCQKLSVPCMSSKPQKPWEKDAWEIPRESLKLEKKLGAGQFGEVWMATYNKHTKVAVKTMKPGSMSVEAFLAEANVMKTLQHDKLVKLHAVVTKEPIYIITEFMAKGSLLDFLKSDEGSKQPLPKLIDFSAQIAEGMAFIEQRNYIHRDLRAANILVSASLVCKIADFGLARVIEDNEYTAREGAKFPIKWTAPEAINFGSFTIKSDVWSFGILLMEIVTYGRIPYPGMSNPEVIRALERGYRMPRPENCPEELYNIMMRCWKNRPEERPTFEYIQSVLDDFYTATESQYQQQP
With `Cc1cc(Nc2cc(N3CCN(C)CC3)nc(/C=C/c3ccccc3)n2)n[nH]1` [ENMD-2076] the Kd was > 30 µM (inactive).
In the case of `O=C1NC(=O)/C(=C/c2ccc3nccc(-c4ccncc4)c3c2)S1` [GSK-1059615], the Kd is reported as > 30 µM (inactive).
With `COC(=O)[C@@]1(O)C[C@H]2O[C@]1(C)n1c3ccccc3c3c4c(c5c6ccccc6n2c5c31)C(=O)NC4` [K-252A] the Kd was > 30 µM (inactive).
With `COc1cc2nccc(Oc3ccc(NC(=O)NC4CC4)c(Cl)c3)c2cc1C(N)=O` [LENVATINIB] the Kd was > 30 µM (inactive).
For `C1=C/COCc2cc(ccc2OCCN2CCCC2)Nc2nccc(n2)-c2cccc(c2)COC/1` [PACRITINIB], the Kd was > 30 µM (inactive).

What follows are molecules tested against LIM domain kinase 2 (Homo sapiens, UniProt P53671).
Sequence of LIM domain kinase 2 (P53671 whole entry, the tested form may be a part): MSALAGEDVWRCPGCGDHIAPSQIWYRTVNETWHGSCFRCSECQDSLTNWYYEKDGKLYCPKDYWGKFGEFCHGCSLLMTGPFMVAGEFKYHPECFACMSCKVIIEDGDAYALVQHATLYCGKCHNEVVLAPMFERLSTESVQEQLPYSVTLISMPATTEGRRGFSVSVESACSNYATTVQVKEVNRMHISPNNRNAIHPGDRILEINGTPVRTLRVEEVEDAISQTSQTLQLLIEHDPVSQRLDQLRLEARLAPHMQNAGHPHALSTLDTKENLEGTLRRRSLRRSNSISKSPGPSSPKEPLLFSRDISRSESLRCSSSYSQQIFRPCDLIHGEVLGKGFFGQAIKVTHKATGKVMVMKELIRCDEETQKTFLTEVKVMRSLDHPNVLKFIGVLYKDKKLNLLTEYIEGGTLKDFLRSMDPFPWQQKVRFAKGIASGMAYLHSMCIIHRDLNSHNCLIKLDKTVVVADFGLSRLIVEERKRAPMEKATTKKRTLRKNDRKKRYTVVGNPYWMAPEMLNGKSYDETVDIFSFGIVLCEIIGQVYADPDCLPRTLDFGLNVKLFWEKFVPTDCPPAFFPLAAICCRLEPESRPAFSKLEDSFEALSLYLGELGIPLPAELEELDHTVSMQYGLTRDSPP
`O=C1NC(=O)/C(=C/c2ccc3nccc(-c4ccncc4)c3c2)S1` [GSK-1059615] was tested, and the Kd was > 30 µM (inactive).
In the case of `COC(=O)[C@@]1(O)C[C@H]2O[C@]1(C)n1c3ccccc3c3c4c(c5c6ccccc6n2c5c31)C(=O)NC4` [K-252A], the Kd is reported as > 30 µM (inactive).
With `COc1cc2nccc(Oc3ccc(NC(=O)NC4CC4)c(Cl)c3)c2cc1C(N)=O` [LENVATINIB] the Kd was > 30 µM (inactive).
`C1=C/COCc2cc(ccc2OCCN2CCCC2)Nc2nccc(n2)-c2cccc(c2)COC/1` [PACRITINIB] was tested, and the Kd was 52.1 µM (active).

Each molecule was assayed against Receptor-interacting serine/threonine-protein kinase 2 (Homo sapiens, UniProt O43353).
Sequence of Receptor-interacting serine/threonine-protein kinase 2 (O43353 whole entry): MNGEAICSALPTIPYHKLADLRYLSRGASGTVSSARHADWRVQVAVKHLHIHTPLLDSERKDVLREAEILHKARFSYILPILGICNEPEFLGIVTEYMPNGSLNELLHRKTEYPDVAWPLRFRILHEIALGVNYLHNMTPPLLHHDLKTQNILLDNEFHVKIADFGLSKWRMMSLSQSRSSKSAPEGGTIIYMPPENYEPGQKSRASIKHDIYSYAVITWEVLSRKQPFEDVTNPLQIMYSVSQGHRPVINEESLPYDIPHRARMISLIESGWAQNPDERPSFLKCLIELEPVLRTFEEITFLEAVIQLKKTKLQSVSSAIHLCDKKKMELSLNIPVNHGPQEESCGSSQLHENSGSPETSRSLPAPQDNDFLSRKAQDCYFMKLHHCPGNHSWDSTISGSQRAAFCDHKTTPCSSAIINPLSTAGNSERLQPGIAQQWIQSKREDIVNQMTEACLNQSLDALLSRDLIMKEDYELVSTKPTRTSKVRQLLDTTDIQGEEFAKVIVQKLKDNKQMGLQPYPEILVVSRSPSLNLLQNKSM
In the case of `Cc1cc(Nc2cc(N3CCN(C)CC3)nc(/C=C/c3ccccc3)n2)n[nH]1` [ENMD-2076], the Kd is reported as > 30 µM (inactive).
`O=C1NC(=O)/C(=C/c2ccc3nccc(-c4ccncc4)c3c2)S1` [GSK-1059615] was tested, and the Kd was > 30 µM (inactive).
For `COc1cc2nccc(Oc3ccc(NC(=O)NC4CC4)c(Cl)c3)c2cc1C(N)=O` [LENVATINIB], the Kd was 0.011 µM (active).
With `C1=C/COCc2cc(ccc2OCCN2CCCC2)Nc2nccc(n2)-c2cccc(c2)COC/1` [PACRITINIB] the Kd was > 30 µM (inactive).

These molecules were tested against T3, Serine/threonine-protein kinase Nek2 (Homo sapiens, UniProt P51955).
T3 sequence (P51955 whole entry): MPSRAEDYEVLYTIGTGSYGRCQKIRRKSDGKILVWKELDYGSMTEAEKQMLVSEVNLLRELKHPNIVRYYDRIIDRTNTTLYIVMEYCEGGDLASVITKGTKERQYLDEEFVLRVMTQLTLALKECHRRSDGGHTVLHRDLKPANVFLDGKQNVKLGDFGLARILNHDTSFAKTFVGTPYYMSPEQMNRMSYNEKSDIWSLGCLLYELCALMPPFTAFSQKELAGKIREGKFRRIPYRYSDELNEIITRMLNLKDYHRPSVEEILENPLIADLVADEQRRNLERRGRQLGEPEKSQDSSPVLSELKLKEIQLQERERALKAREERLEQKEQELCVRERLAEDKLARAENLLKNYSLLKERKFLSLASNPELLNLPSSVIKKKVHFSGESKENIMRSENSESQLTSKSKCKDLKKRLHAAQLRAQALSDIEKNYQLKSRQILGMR
In the case of `O=C1NC(=O)/C(=C/c2ccc3nccc(-c4ccncc4)c3c2)S1` [GSK-1059615], the Kd is reported as > 30 µM (inactive).
For `COC(=O)[C@@]1(O)C[C@H]2O[C@]1(C)n1c3ccccc3c3c4c(c5c6ccccc6n2c5c31)C(=O)NC4` [K-252A], the Kd was > 30 µM (inactive).
With `COc1cc2nccc(Oc3ccc(NC(=O)NC4CC4)c(Cl)c3)c2cc1C(N)=O` [LENVATINIB] the Kd was > 30 µM (inactive).
In the case of `C1=C/COCc2cc(ccc2OCCN2CCCC2)Nc2nccc(n2)-c2cccc(c2)COC/1` [PACRITINIB], the Kd is reported as > 30 µM (inactive).

These molecules were tested against Midasin (Homo sapiens, UniProt Q9NU22).
In the case of `Cc1cc(Nc2cc(N3CCN(C)CC3)nc(/C=C/c3ccccc3)n2)n[nH]1` [ENMD-2076], the Kd is reported as > 30 µM (inactive).
For `COC(=O)[C@@]1(O)C[C@H]2O[C@]1(C)n1c3ccccc3c3c4c(c5c6ccccc6n2c5c31)C(=O)NC4` [K-252A], the Kd was > 30 µM (inactive).
With `COc1cc2nccc(Oc3ccc(NC(=O)NC4CC4)c(Cl)c3)c2cc1C(N)=O` [LENVATINIB] the Kd was > 30 µM (inactive).
`C1=C/COCc2cc(ccc2OCCN2CCCC2)Nc2nccc(n2)-c2cccc(c2)COC/1` [PACRITINIB] was tested, and the Kd was > 30 µM (inactive).

Each molecule was assayed against Cyclin-dependent kinase 3 (Homo sapiens, UniProt Q00526).
Sequence of Cyclin-dependent kinase 3 (Q00526 whole entry): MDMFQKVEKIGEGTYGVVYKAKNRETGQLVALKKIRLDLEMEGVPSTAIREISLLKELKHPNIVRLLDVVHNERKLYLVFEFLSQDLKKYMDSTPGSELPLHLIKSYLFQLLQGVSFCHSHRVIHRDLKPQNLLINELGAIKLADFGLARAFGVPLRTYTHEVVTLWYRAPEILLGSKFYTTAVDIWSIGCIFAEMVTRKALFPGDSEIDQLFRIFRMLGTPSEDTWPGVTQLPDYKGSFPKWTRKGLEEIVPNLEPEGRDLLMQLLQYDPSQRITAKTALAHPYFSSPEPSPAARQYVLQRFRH
In the case of `Cc1cc(Nc2cc(N3CCN(C)CC3)nc(/C=C/c3ccccc3)n2)n[nH]1` [ENMD-2076], the Kd is reported as > 30 µM (inactive).
For `O=C1NC(=O)/C(=C/c2ccc3nccc(-c4ccncc4)c3c2)S1` [GSK-1059615], the Kd was > 30 µM (inactive).
For `COC(=O)[C@@]1(O)C[C@H]2O[C@]1(C)n1c3ccccc3c3c4c(c5c6ccccc6n2c5c31)C(=O)NC4` [K-252A], the Kd was 0.032 µM (active).
In the case of `C1=C/COCc2cc(ccc2OCCN2CCCC2)Nc2nccc(n2)-c2cccc(c2)COC/1` [PACRITINIB], the Kd is reported as > 30 µM (inactive).
